From PubChem BioAssay (NCI)
Where “and” joins values, the source holds several entries; their conditions need not be identical. Equal entries are not always repeated.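 Briefly, cells in 96-well plates were exposed to five compound concentrations for 48 h, and endpoints were estimated by linear interpolation. Here, GI50 denotes the concentration required for 50% inhibition of growth. TGI marks complete inhibition of growth.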

How the values were obtained:
Test in all cases: NCI tumour cell line growth inhibition, 48 h
[1] = tested on: MDA-N
[2] = tested on: LXFL 529 NSCLC
[3] = tested on: SNB-78 CNS
[4] = tested on: HOP-18 NSCLC
[5] = tested on: KM20L2 colon
[6] = tested on: DMS 273 small cell lung
[7] = tested on: DMS 114 small cell lung
[8] = tested on: XF 498 CNS
[9] = tested on: RXF-631 renal
[10] = tested on: P388/ADR leukemia
[11] = tested on: P388 leukemia
[12] = tested on: SN12K1 renal

| Structure (SMILES) | TGI [1] | TGI [2] | TGI [3] | TGI [4] [µM] | TGI [5] | TGI [6] | TGI [7] | TGI [8] | TGI [9] [µM] | other results |
| --- | --- | --- | --- | --- | --- | --- | --- | --- | --- | --- |
| COc1cc2c(cc1OC)[C@H]1C(=O)c3cc4c(cc3[C@H]1N(C)C2=O)OCO4 | > 100 µM | – | – | – | – | – | – | – | – | – |
| Cc1cc(N)c2ccccc2[n+]1CCCCCCCCCC[n+]1c(C)cc(N)c2ccccc21 | 6.08 µM and 6.72 µM | – | – | – | – | – | – | – | – | GI50 [1]: 2.13 µM |
| CN1CC(C(=O)NC2(C)OC3(O)C4CCCN4C(=O)C(Cc4ccccc4)N3C2=O)C=C2c3cccc4[nH]cc(c34)CC21 (configuration not stated) | 55.1 µM | – | – | – | – | – | – | – | – | – |
| COC(=O)C(=O)C(C(=O)C(=O)Nc1ccccc1C(N)=O)c1nc2ccc(C(=O)c3ccccc3)cc2[nH]c1=O (configuration not stated) | – | > 100 µM | > 100 µM | > 100 | > 100 µM | > 100 µM | > 100 µM | > 100 µM | > 100 | – |
| Cc1ns/c(=N\C(=S)N(C)C)n1C | – | > 100 µM | > 100 µM | > 100 | > 100 µM | > 100 µM | > 100 µM | > 100 µM | > 100 | – |
| C/C(=N/Nc1ccc([N+](=O)[O-])cc1[N+](=O)[O-])C(CC(C(=O)Nc1ccccc1C)/C(C)=N\Nc1ccc([N+](=O)[O-])cc1[N+](=O)[O-])C(=O)Nc1ccccc1C (configuration not stated) | – | 27.9 µM | 52.2 µM | 28.9 | > 88.3 µM | 41.7 µM | 17.7 µM | 33.8 µM | – | – |
| O=C1/C(=C/c2ccccc2)CN(C(=O)Oc2ccc([N+](=O)[O-])cc2)C/C1=C\c1ccccc1 | – | 5.41 µM and 2.9 µM | 28.5 µM | – | 8.2 µM | 2.94 µM and 3.17 µM | 4.63 µM and 3.84 µM | – | – | GI50 [2]: 1.41 µM; GI50 [5]: 3.9 µM; GI50 [6]: 1.22 µM; GI50 [7]: 1.68 µM |
| O=C1CC2Sc3ccccc3N=C2N1c1ccc(Cl)cc1Cl (configuration not stated) | – | > 100 µM | > 100 µM | > 100 | > 100 µM | – | > 100 µM | > 100 µM | > 100 | – |
| O=C(OCc1nc2ccc(Br)cc2c(=O)n1-c1ccccc1)c1ccccc1O | – | > 100 µM | > 100 µM | – | > 100 µM | – | – | > 100 µM | – | – |
| O=C1c2cccc3cccc(c23)C(=O)N1CCCN1CCN(CCCN2C(=O)c3cccc4cccc(c34)C2=O)CC1 | – | > 100 µM | > 100 µM | > 100 | > 100 µM | > 100 µM | > 100 µM | > 100 µM | > 100 | – |
| COc1ccccc1NC(=O)C(=O)C1C(=O)Nc2ccccc2S1=O (configuration not stated) | – | > 100 µM | > 100 µM | > 100 | > 100 µM | > 100 µM | > 100 µM | > 100 µM | > 100 | – |
| N#CC1(C#N)C2C=CC(C3CCC=C32)C1(C#N)C#N (configuration not stated) | > 10 µM | – | – | – | – | – | – | – | – | – |
| N#CC(=C=[N-])[n+]1ccc(Cl)cc1 | – | 27.6 µM | 42.4 µM | – | 65.4 µM | 46.2 µM | 26.9 µM | 33.4 µM | 52.5 | – |
| CCCCCCCCCCCCCCCC(=O)OCC1OC(n2ccc(N)nc2=O)C(O)C1O (configuration not stated) | > 100 µM | > 100 µM | > 100 µM | > 100 | > 100 µM | > 100 µM | – | > 100 µM | – | – |
| COc1cc(CC(=O)c2ccc3c(c2)OCO3)cc(OC)c1OC | – | > 100 µM | > 100 µM | > 100 | > 100 µM | – | 92.7 µM | – | > 100 | – |
| CC[C@@]1(OC(=O)CN(C)C)C(=O)OCc2c1cc1n(c2=O)Cc2cc3ccccc3nc2-1 | 1.92 µM and 3.8 µM | 5.02 µM and 3.35 µM | > 100 µM | – | 4.94 µM | 0.149 µM | 1.53 µM | 3.19 µM | – | GI50 [2]: 0.577 µM; GI50 [3]: 0.957 µM; GI50 [4]: 0.113 µM |
| COC(=O)C1CCC(=NC2c3ccccc3-c3ccccc32)N1 (configuration not stated) | – | > 100 µM | > 100 µM | > 100 | > 100 µM | > 100 µM | > 100 µM | > 100 µM | > 100 | – |

| Structure (SMILES) | TGI [1] | TGI [2] | TGI [3] | TGI [4] [µM] | TGI [5] | TGI [6] | TGI [7] | TGI [8] | TGI [9] [µM] | other results |
| --- | --- | --- | --- | --- | --- | --- | --- | --- | --- | --- |
| Clc1ccccc1C1=NN(c2ccccc2)C2c3cc(Br)ccc3OCC12 (configuration not stated) | – | > 100 µM | > 100 µM | > 100 | > 100 µM | > 100 µM | > 100 µM | > 100 µM | – | – |
| CCCCCCCCCCCCCCCC(=O)N[C@H]1CCc2cc(OC)c(OC)c(OC)c2-c2ccc(SC)c(=O)cc21 | – | 9.54 µM and 4.92 µM | 80 µM and 25.7 µM | 36.9 | 0.344 µM and 3.4 µM | – | – | 8.5 µM and 8.63 µM | – | GI50 [2]: 1.55 µM; GI50 [3]: 0.669 µM; GI50 [5]: 1.59 µM; GI50 [8]: 2.18 µM |
| CCOC(=N)CC(=O)NC(C)c1ccccc1 (configuration not stated) | – | > 100 µM | > 100 µM | > 100 | > 100 µM | > 100 µM | – | > 100 µM | > 100 | – |
| O=C1c2ccccc2C(=O)c2c1ccc1c3ccccc3n(Cc3ccccc3)c21 | – | > 100 µM | – | 0.0908 | – | – | > 100 µM | > 100 µM | – | – |
| CN1c2ccccc2C(=O)Nc2cnc(Cl)nc21 | > 100 µM | – | – | – | – | – | – | – | – | – |
| Nc1ccc2c(c1)CN1C(=O)c3ccccc3C1=N2 | > 125 µM | – | > 79.4 µM | > 125 | > 125 µM | > 125 µM | > 125 µM | – | – | TGI [10]: > 125 µM; TGI [11]: > 125 µM; TGI [12]: > 72.4 µM |
| COc1cc(C2c3cc4c(cc3[C@@H](Nc3cccc(O)c3)C3COC(=O)[C@H]23)OCO4)cc(OC)c1O (some centres not stated) | 20.5 µM | 24.9 µM | 65.1 µM | 33 | 17.6 µM | 6 µM | 5.21 µM | 0.985 µM and 8.34 µM | – | TGI [10]: 1.65 µM; GI50 [2]: 0.85 µM; TGI [11]: 0.507 µM; GI50 [3]: 0.906 µM; GI50 [6]: 0.404 µM; GI50 [7]: 0.49 µM; TGI [12]: 7.81 µM; GI50 [8]: 0.52 µM |
| CCC1NCC(=O)c2c1[nH]c1ccccc21 (configuration not stated) | – | > 100 µM | > 100 µM | > 100 | > 100 µM | > 100 µM | > 100 µM | – | – | – |
| C/C(=N\NC(=S)N1CCC(C2CCN(C(=S)N/N=C(\C)c3ccccn3)CC2)CC1)c1ccccn1 | – | > 100 µM | > 100 µM | > 100 | > 100 µM | > 100 µM | – | 86.5 µM | > 100 | – |
| Cc1cccc(N2C(=O)/C(=C/c3ccc(N(CCC#N)CCC#N)cc3C)N=C2c2cc([N+](=O)[O-])ccc2Cl)c1 | – | > 100 µM | – | > 100 | – | > 100 µM | > 100 µM | – | > 100 | – |
| O=C1/C(=C/c2ccccc2)CN(C(=O)OCC(Cl)(Cl)Cl)C/C1=C\c1ccccc1 | – | 3.94 µM | 5.92 µM | 9.82 | 7.68 µM | 3.27 µM | 4.08 µM | – | – | – |
| CCCOc1c2cc(COC3OC(CO)C(O)C(O)C3O)cc1Cc1cc(COC3OC(CO)C(O)C(O)C3O)cc(c1OCCC)Cc1cc(COC3OC(CO)C(O)C(O)C3O)cc(c1OCCC)Cc1cc(COC3OC(CO)C(O)C(O)C3O)cc(c1OCCC)C2 (configuration not stated) | > 100 µM and 34.8 µM | – | – | – | – | – | – | – | – | GI50 [1]: > 100 µM and 18.4 µM |
| O=[N+]([O-])O.[NH-]C1CCCCC1[NH-].[NH-]C1CCCCC1[NH-].[NH-]C1CCCCC1[NH-].[OH-].[OH-].[OH-].[Pt+4].[Pt+4].[Pt+4] (configuration not stated) | 6.74 µM | – | – | – | – | – | – | – | – | GI50 [1]: 0.205 µM |
| CCOC(=O)NNC(=O)NC12CC3CC(CC(C3)C1)C2 | – | > 100 µM | > 100 µM | > 100 | > 100 µM | > 100 µM | > 100 µM | > 100 µM | – | – |
| CC(C)(C)NCCC(O)c1cc(C(F)(F)F)nc2c(C(F)(F)F)cccc12 (configuration not stated) | 24 µM | – | – | – | – | – | – | – | – | – |
| O=C(CC(C(=O)O)N1CCOCC1)c1ccccc1 (configuration not stated) | 36.8 µM | – | – | – | – | – | – | – | – | – |
